Laboratory results reported in US20010039275A1, “Use of 2,4-diaminothiazole derivatives” (priority 2000, published 2001).

| melting point [°C] | SMILES |
| --- | --- |
| 136 to 139 | CCC(=O)c1sc(Nc2ccccc2)nc1N [Example 11, 1-(4-Amino-2-phenylaminothiazol-5-yl)propan-1-one] |
| 227 to 229 | Nc1nc(Nc2ccccc2)sc1C(=O)c1ccc2ccccc2c1 [Example 14, (4-Amino-2-phenylaminothiazol-5-yl)naphthalen-2-ylmethanone] |
| 121 to 124 | Nc1nc(Nc2ccccc2)sc1C(=O)c1cccc(OCc2ccccc2)c1 [Example 16, (4-Amino-2-phenylaminothiazol-5-yl)-(3-benzyloxyphenyl)methanone] |
| 204 to 206 | Nc1nc(Nc2ccc(Br)cc2)sc1C(=O)C1CC1 [Example 17, [4-Amino-2-(4-bromophenylamino)thiazol-5-yl]cyclopropylmethanone] |
| 195 to 198 | Nc1nc(Nc2ccccc2)sc1C(=O)c1ccc(Cl)c(Cl)c1 [Example 18, (4-Amino-2-phenylaminothiazol-5-yl)-(3,4-dichlorophenyl)methanone] |
| 217 to 219 | Nc1nc(Nc2ccccc2)sc1-c1ccc([N+](=O)[O-])cc1 [Example 20, 4-Amino-2-phenylamino-5-(4-nitrophenyl)thiazole] |
| 167 to 169 | Nc1nc(Nc2ccccc2)sc1C(=O)c1ccc(Cl)s1 [Example 21, (4-Amino-2-phenylaminothiazol-5-yl)-(5-chlorothiophen-2-yl)methanone] |
| 196 to 200 | COc1ccccc1C(=O)c1sc(Nc2ccccc2)nc1N [Example 22, (4-Amino-2-phenylaminothiazol-5-yl)-(2-methoxyphenvl)methanone] |
| 206 to 208 | Nc1nc(Nc2ccccc2)sc1C(=O)c1ccc([N+](=O)[O-])cc1 [Example 27, (4-Amino-2-phenylaminothiazol-5-yl)-(4-nitrophenyl)methanone] |
| 173 to 175 | Cc1cc(C(=O)c2sc(Nc3ccccc3)nc2N)ccc1Cl [Example 28, (4-amino-2-phenylaminothiazol-5-yl)-(4-chloro-3-methylphenyl)methanone] |
| 205 to 206 | CCCNc1nc(N)c(C(=O)c2cccnc2)s1 [Example 32, (4-Amino-2-propylaminothiazol-5-yl)pyridin-3-yl-methanone] |
| 198 to 200 | Cc1cc(C)c(C(=O)c2sc(Nc3ccccc3)nc2N)c(C)c1 [Example 35, (4-Amino-2-phenylaminothiazol-5-yl)-(2,4,6-trimethylphenyl)methanone] |
| 224 to 226 | COc1cccc(OC)c1C(=O)c1sc(Nc2ccccc2)nc1N [Example 37, (4-Amino-2-phenylaminothiazol-5-yl)-(2,6-dimethoxyphenyl)methanone] |
| 75 | Nc1nc(Nc2ccccc2)sc1C(=O)Nc1ccccc1 [Example 45, 4-Amino-2-phenylaminothiazole-5-carboxylic acid phenylamide] |
| 152 to 153 | CON(C)C(=O)c1sc(Nc2ccccc2)nc1N [Example 46, 4-Amino-2-phenyiaminothiazole-5-carboxylic acid methoxymethylamide] |
| 212 to 213 | Nc1nc(Nc2ccccc2)sc1C(=O)N1CCOCC1 [Example 49, (4-Amino-2-phenylaminothiazol-5-yl)morpholin-4-ylmethanone] |
| 173 to 174 | Nc1nc(Nc2ccc(Cl)cc2)sc1C(=O)c1cccc(OCc2ccccc2)c1 [Example 54, [4-Amino-2-(4-chlorophenylamino)thiazol-5-yl]-(3-benzyloxyphenyl)methanone] |

The next lines start with the compound.

| SMILES | melting point [°C] |
| --- | --- |
| Nc1nc(Nc2ccccc2)sc1C(=O)c1ccc(C(F)(F)F)cc1 [Example 6, (4-Amino-2-phenylaminothiazol-5-yl)-(4-trifluoromethylphenyl)methanone] | 201 to 205 |
| CCN(CC)c1ccc(C(=O)c2sc(Nc3ccccc3)nc2N)cc1 [Example 7, (4-Amino-2-phenylaminothiazol-5-yl)-(4-diethylaminophenyl)methanone] | 214 to 216 |
| Nc1nc(Nc2ccccc2)sc1C(=O)c1ccc(OC(F)(F)F)cc1 [Example 8, (4-Amino-2-phenylaminothiazol-5-yl)-(4-trifluoromethoxyphenyl)methanone] | 170 to 173 |
| Nc1nc(Nc2ccccc2)sc1C(=O)c1ccc(F)c(F)c1 [Example 12, (4-Amino-2-phenylaminothiazol-5-yl)-(3,4-difluorophenyl)methanone] | 178 to 180 |
| Nc1nc(Nc2ccccc2)sc1C(=O)c1cccc(F)c1 [Example 13, (4-Amino-2-phenylaminothiazol-5-yl)-(3-fluorophenyl)methanone] | 161 to 164 |
| Nc1nc(Nc2ccccc2)sc1C(=O)c1ccc(-c2ccccc2)cc1 [Example 15, (4-Amino-2-phenylaminothiazol-5-yl)biphenyl-4-ylmethanone] | 224 to 225 |
| Cc1c(C(=O)c2sc(Nc3ccccc3)nc2N)sc2ccccc12 [Example 19, (4-Amino-2-phenylaminothiazol-5-yl)-(3-methylbenzo[b]thiophen-2-yl) methanone] | 165 to 167 |
| COc1cccc(C(=O)c2sc(Nc3ccccc3)nc2N)c1 [Example 23, (4-Amino-2-phenylaminothiazol-5-yl)-(3-methoxyphenyl)methanone] | 174 to 175 |
| Nc1nc(Nc2ccccc2)sc1C(=O)c1ccccc1[N+](=O)[O-] [Example 25, (4-Amino-2-phenylaminothiazol-5-yl)-(2-nitrophenyl)methanone] | 117 to 119 |
| Nc1nc(Nc2ccccc2)sc1C(=O)c1ccc(O)c(O)c1 [Example 29, (4-Amino-2-phenylaminothiazol-5-yl)-(3,4-dihydroxyphenyl)methanone] | 222 to 224 |
| COc1ccc(C(=O)c2sc(Nc3ccccc3)nc2N)c(OC)c1 [Example 30, (4-Amino-2-phenylaminothiazol-5-yl)-(2,4-dimethoxyphenyl)methanone] | 196 to 198 |
| COC(=O)c1sc(Nc2ccccc2)nc1N [Example 38, 4-Amino-2-phenylaminothiazole-5-carboxylic acid methyl ester] | 173 to 174 |
| Nc1nc(Nc2ccccc2)sc1C(=O)c1csc2ccccc12 [Example 40, (4-Amino-2-phenylaminothiazol-5-yl)-benzofblthiophen-3-yl-methanone] | 211 to 212 |
| Nc1nc(Nc2ccccc2)sc1C(=O)c1c(Cl)cccc1Cl [Example 42, (4-Amino-2-phenylaminothiazol-5-yl)-(2,6-dichlorophenyl)methanone] | 245 to 246 |
